Laboratory results from ChEMBL document CHEMBL1201862, “PubChem BioAssay data set” (2004).
Activity calls are given as the source filed them.

Legend:
[1] = biological target: T1, Zinc finger protein mex-5 (Caenorhabditis elegans, UniProt Q9XUB2); assay: potency of MEX-5 RNA-binding blockers – biochemical, C. elegans, fluorescence polarization, dose response (AID 1960)
T1 sequence (Q9XUB2 whole entry): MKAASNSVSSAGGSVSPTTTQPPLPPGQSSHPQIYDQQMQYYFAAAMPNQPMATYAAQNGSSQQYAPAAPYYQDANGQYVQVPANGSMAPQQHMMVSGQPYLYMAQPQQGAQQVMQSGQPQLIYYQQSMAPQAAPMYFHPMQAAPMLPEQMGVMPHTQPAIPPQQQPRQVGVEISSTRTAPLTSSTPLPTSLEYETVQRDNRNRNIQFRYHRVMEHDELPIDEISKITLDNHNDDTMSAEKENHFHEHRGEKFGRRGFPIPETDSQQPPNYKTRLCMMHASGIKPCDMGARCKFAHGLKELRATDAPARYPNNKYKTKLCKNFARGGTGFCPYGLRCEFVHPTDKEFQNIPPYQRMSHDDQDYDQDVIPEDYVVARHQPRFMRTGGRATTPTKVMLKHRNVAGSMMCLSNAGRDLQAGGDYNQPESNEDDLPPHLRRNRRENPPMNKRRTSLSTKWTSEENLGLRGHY

[2] = biological target: T2, RNA-binding protein pos-1 (Caenorhabditis elegans, UniProt G5EF15); assay: disruptors of C. elegans POS-1 RNA interaction – biochemical, fluorescence polarization, dose response (AID 1964);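 also: purified POS-1 fused to maltose binding protein made in E. coli; potency of compounds blocking POS-1 binding to fluorescent RNA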
T2 sequence (G5EF15 whole entry): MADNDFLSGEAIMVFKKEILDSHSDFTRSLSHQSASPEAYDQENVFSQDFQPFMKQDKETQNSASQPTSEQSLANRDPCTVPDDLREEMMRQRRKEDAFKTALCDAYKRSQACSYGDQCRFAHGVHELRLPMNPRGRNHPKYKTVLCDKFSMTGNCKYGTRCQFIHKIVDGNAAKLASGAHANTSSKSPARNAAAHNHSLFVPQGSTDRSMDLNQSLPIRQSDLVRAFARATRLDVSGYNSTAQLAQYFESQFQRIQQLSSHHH

Aminopeptidase N = biological target: T3, Aminopeptidase N (Plasmodium falciparum FcB1/Columbia, UniProt O96935); assay: malaria alanyl aminopeptidase activity blockers – biochemical, fluorogenic H-Leu-NHMec substrate, 1536-well (AID 1445); design: species or system Plasmodium falciparum 3D7, 3D7
T3 sequence (O96935 whole entry): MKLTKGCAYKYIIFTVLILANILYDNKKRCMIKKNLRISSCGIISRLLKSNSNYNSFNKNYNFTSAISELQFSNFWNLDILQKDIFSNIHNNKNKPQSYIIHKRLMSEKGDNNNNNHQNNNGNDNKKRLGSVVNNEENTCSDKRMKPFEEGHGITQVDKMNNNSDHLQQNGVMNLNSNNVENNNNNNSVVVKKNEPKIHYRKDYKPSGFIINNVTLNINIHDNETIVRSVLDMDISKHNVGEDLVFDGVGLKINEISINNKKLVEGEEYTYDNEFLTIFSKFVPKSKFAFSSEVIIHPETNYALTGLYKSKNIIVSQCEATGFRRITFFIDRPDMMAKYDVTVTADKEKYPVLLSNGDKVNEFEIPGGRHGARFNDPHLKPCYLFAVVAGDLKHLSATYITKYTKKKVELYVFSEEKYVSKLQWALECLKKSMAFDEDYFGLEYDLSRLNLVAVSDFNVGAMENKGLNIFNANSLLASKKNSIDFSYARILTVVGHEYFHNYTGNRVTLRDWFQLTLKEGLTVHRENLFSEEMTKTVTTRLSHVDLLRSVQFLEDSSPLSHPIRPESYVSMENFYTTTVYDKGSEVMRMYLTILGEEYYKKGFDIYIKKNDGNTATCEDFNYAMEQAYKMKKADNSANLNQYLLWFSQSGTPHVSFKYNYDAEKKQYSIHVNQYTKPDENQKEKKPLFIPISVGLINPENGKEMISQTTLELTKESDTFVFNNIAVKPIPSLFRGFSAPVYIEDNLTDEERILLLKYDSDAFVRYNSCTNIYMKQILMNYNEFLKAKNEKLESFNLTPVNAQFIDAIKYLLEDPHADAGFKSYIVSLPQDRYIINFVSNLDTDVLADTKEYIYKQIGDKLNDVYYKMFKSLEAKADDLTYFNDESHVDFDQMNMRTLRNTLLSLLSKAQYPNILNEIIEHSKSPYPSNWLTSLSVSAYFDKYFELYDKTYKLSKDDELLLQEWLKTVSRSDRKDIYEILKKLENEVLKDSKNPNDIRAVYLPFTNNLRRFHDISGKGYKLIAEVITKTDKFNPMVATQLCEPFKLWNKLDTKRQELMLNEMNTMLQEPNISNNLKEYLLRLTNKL

Cytochrome P450 2C9 = Cytochrome P450 2C9 (Homo sapiens, UniProt P11712)
Cytochrome P450 2C9, sequence (P11712 whole entry): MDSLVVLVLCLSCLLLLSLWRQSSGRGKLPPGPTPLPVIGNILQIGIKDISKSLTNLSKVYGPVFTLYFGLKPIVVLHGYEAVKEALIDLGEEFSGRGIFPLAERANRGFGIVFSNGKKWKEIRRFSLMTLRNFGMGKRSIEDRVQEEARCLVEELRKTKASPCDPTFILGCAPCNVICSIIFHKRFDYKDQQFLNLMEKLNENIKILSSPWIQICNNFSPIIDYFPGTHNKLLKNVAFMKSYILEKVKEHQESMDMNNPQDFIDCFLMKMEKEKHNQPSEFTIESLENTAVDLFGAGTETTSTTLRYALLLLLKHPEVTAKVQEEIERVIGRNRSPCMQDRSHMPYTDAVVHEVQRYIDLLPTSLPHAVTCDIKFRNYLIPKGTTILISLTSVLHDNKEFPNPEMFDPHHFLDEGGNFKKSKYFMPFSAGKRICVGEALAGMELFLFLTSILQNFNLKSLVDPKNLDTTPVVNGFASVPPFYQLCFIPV

Cytochrome P450 3A4 [3] = biological target: T4, Cytochrome P450 3A4 (Homo sapiens, UniProt P08684)
T4 sequence (P08684 whole entry): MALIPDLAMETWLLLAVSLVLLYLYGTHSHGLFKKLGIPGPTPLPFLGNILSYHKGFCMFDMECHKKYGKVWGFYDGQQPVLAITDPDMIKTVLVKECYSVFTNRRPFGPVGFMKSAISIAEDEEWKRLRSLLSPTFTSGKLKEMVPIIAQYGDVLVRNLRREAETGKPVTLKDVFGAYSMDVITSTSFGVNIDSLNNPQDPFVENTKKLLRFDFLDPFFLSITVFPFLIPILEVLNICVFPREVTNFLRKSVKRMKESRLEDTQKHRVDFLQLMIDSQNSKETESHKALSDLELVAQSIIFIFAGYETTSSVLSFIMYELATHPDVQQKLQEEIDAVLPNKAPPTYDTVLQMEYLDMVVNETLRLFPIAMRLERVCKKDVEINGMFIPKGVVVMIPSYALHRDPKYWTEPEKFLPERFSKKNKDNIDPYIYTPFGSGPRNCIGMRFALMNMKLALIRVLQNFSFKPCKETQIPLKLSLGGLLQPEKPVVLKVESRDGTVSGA

Cytochrome P450 2C19 = Cytochrome P450 2C19 (Homo sapiens, UniProt P33261); assay: Cytochrome panel assay with activity outcomes. Panel member name: p450-cyp2c19 Compounds with AC50 equal or less than 10 uM are considered active; assay type: functional; details: read-out: AC50
Cytochrome P450 2C19, sequence (P33261 whole entry): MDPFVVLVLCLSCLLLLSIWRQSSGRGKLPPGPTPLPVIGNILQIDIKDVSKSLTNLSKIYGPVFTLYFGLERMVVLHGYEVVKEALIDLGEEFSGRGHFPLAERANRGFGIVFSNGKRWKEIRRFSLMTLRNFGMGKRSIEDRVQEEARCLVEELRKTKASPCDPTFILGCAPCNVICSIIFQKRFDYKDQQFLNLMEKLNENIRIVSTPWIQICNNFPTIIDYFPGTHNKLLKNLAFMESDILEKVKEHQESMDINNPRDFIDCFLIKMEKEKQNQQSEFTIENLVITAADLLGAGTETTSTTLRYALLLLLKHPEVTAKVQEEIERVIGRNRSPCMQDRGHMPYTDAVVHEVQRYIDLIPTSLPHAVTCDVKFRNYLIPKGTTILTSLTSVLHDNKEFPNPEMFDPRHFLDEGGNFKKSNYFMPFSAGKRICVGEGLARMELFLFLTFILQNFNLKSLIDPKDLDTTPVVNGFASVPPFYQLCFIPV

Cytochrome P450 3A4 [4] = biological target: T4, Cytochrome P450 3A4; details: Potency
Cytochrome P450 2D6 = Cytochrome P450 2D6 (Homo sapiens, UniProt P10635);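 also: CYP2D6 member of a cytochrome P450 panel assay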
Cytochrome P450 2D6, sequence (P10635 whole entry): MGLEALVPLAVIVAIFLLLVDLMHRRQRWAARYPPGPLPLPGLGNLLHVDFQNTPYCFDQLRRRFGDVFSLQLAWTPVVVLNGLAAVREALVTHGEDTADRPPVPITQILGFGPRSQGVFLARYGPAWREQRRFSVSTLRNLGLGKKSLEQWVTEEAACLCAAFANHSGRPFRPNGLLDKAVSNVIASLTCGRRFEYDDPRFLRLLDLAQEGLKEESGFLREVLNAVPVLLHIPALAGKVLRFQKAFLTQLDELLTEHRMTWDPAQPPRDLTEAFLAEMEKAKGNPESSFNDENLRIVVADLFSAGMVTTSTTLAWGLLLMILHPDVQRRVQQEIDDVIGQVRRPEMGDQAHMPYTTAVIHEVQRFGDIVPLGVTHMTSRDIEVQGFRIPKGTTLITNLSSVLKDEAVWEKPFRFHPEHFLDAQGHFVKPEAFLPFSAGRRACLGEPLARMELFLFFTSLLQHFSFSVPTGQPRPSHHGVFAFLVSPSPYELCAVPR

[5] = viability of PTEN-deleted HCT116 cells – cell-based, HCT116 PTEN knockout, dose response (AID 1047); assay type: functional;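 also: HCT116 colon tumor cells with PTEN knocked out; cells exposed to compound for 60 hours before readout; potency for loss of cell viability measured by luminescence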
[6] = viability of HCT116 lacking mutant beta-catenin – cell-based, human colon tumor, dose response (AID 1045); assay type: functional;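 also: HCT116 colon tumor cells with beta catenin knocked out; cells exposed to compound for 60 hours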
Cytochrome P450 1A2 = biological target: T5, Cytochrome P450 1A2 (Homo sapiens, UniProt P05177);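 also: PubChem cytochrome P450 panel assay, CYP1A2 panel member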
T5 sequence (P05177 whole entry): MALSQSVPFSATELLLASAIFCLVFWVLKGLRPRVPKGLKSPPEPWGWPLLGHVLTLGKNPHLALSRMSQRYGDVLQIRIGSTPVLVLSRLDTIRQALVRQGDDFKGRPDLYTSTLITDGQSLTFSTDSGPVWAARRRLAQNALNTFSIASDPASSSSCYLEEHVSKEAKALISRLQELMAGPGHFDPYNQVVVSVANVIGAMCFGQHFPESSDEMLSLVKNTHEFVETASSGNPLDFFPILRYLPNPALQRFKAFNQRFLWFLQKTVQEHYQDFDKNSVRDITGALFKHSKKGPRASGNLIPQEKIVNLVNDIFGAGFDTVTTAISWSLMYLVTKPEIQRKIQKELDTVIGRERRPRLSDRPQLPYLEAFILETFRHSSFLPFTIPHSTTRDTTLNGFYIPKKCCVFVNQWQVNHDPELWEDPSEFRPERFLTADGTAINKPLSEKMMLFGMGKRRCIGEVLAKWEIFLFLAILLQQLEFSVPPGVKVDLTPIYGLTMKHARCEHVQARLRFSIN

CN1C(=O)C(=Cc2cn(CC(=O)N3CCCCC3)c3ccccc23)C(=O)N(C)C1=O
EC50 [1]: > 300 µM (not active) | EC50 [2]: > 300 µM (not active)

CCOP(=O)(OCC)c1nc(/C=C/c2ccccc2)oc1NCc1ccc(OC)cc1
IC50 (Aminopeptidase N): 128 µM (active)

COc1cccc(Nc2ncc3nc(-c4ccc(F)cc4)c(=O)n(CCC#N)c3n2)c1
AC50 (Cytochrome P450 2C9): inconclusive

Cc1ccccc1NS(=O)(=O)c1cc(C(=O)N2CCCC2)ccc1C
EC50 [1]: > 300 µM (not active) | EC50 [2]: > 300 µM (not active)

Cc1ccc(C2c3sc(=O)[nH]c3SC3C(=O)NC(=O)C32)cc1 (centres undefined)
EC50 [1]: 6.53 µM (inconclusive) | EC50 [2]: > 300 µM (inconclusive)

COc1ccc2c(c1[N+](=O)[O-])CCC/C2=N/OC(=O)c1ccccc1SC
AC50 (Cytochrome P450 3A4 [3]): 15.8 µM (inconclusive) | AC50 (Cytochrome P450 2C9): inconclusive

COc1ccc(-c2nnc(SCc3cccc(C)c3)n2N)cc1
AC50 (Cytochrome P450 2C9): inconclusive

COc1ccccc1CN1C(=O)c2ccncc2C1=O
AC50 (Cytochrome P450 3A4 [3]): 11.2 µM (inconclusive) | AC50 (Cytochrome P450 2C9): inconclusive

CN(C)S(=O)(=O)c1ccc(NC(=O)c2cc(F)c(F)cc2Cl)cc1
AC50 (Cytochrome P450 2C9): inconclusive | AC50 (Cytochrome P450 2C19): 17.8 µM (inconclusive)

CC(C)c1c(O)ccc2c1CCC1[C@@](C)(C=O)CCC[C@@]21C (some centres undefined)
AC50 (Cytochrome P450 3A4 [4]): 31.6 µM (inconclusive)

N#Cc1ccc(C23CC4(C2)[C@H](CN(CC2CCCCC2)[C@@H]4c2ccccc2)C3c2ccc(Cl)nc2)cc1 (some centres undefined)
AC50 (Cytochrome P450 3A4 [4]): 15.8 µM (inconclusive)

O=C(CN1CCC(NC(=O)c2cccc(F)c2)CC1)NCc1cccs1
IC50 (Aminopeptidase N): 22.6 µM (active)

O=C(N/N=C\c1ccc2c(c1)CCC2)c1ccccc1O
AC50 (Cytochrome P450 2D6): 5.01 µM (inconclusive) | AC50 (Cytochrome P450 2C9): inconclusive | AC50 (Cytochrome P450 2C19): 0.251 µM (inconclusive)

Cc1cccc(NS(=O)(=O)c2ccc3c(c2)Cc2cc(S(=O)(=O)Nc4cccc(C)c4C)ccc2-3)c1C
EC50 [5]: 11 µM (active) | EC50 [6]: 10.2 µM (active)

CC(=O)c1c(O)c(C)c(O)c2c1OC1=CC(=O)C(C(C)=O)C(=O)C12C (centres undefined)
AC50 (Cytochrome P450 3A4 [4]): 0.159 µM (inconclusive)

CCN1C(C)=C(C(=O)OC)C(c2ccccc2)N2C(=O)[C@](O)(C(=O)OC)C(c3ccccc3)C(C(C)=O)=C12 (some centres undefined)
AC50 (Cytochrome P450 3A4 [4]): 3.98 µM (inconclusive)

CCn1c(SCC(=O)Nc2cc(C)on2)nnc1-c1ccc(OC)cc1
EC50 [1]: > 300 µM (not active) | EC50 [2]: > 300 µM (not active)

O=C(O)Cn1cc(/C=C2\C(=O)NC(=O)N(c3ccc(F)cc3)C2=O)c2ccccc21
EC50 [1]: 8.21 µM (active) | EC50 [2]: 9.27 µM (active)

COCc1cc(O)n2nc(-c3cccs3)cc2n1
EC50 [1]: > 300 µM (not active) | EC50 [2]: > 300 µM (not active)

CCOCCCNC(=O)C1CCN(S(=O)(=O)N2CC(C)CC(C)C2)CC1 (centres undefined)
AC50 (Cytochrome P450 3A4 [3]): 15.8 µM (inconclusive) | AC50 (Cytochrome P450 2C9): inconclusive

Cc1ccc(OCCCOc2cccc3cccnc23)cc1C
AC50 (Cytochrome P450 2D6): 17.8 µM (inconclusive) | AC50 (Cytochrome P450 3A4 [3]): 28.2 µM (inconclusive) | AC50 (Cytochrome P450 2C9): inconclusive

C=CCN1C(=O)NC(=O)/C(=C/c2ccc(OCC(=O)Nc3ccc(C)cc3)cc2)C1=O
EC50 [1]: > 300 µM (not active) | EC50 [2]: > 300 µM (not active)

COC(=O)CCCCCN1C(=O)NC(CC2CC2)C(C(=O)OCc2ccccc2)=C1C (centres undefined)
AC50 (Cytochrome P450 3A4 [4]): 20 µM (inconclusive)

O=C1c2c(O)cc(O)cc2OC(c2ccc(O)c(O)c2)C1O (centres undefined) [TAXIFOLIN]
AC50 (Cytochrome P450 3A4 [4]): 25.1 µM (inconclusive)

C=C(C(=O)c1ccccc1)C(C)CC(=O)c1ccccc1 (centres undefined)
EC50 [5]: 5.17 µM (active) | EC50 [6]: 4.74 µM (active)

O=C(C[S+]([O-])c1cccc(C(F)(F)F)c1)Nc1ccccc1Cl (centres undefined)
AC50 (Cytochrome P450 1A2): 15.8 µM (inconclusive) | AC50 (Cytochrome P450 2C9): inconclusive
